Measurements: publication PMC5823688 (Molecular pharmaceutics, 2017)

Legend:
[1] = test system: mitochondria of granta-519 tumor cells; assay: Cytochrome C release from mitochondria of tumor cells; type: cell-based; conditions: 10 μM peptide; in comparison to a positive 1% Triton X-100 control; Figure S4
[2] = test system: SKOV3 cells; conditions: 10 μM polymer, 72 h; FITC-annexin V, flow cytometry
[3] = test system: 3T3 fibroblasts; conditions: MTS; after 120 h of treatment
[4] = test system: caspase 3/7 activity in SKOV3 cells; conditions: 0-10 μM polymer, 72 h
[5] = test system: SKOV3 human ovarian cancer cells; conditions: all polymer concentrations (0 to 10 μM), 96 h, MTS

FLAhxMRPEI-WIAQELRRIGvDEFNAY [FLAhxBIM]
cytochrome C release [1]: > 90%

poly[(DEAEMA)-co-(BMA)]-b-[(PEGMA300)-c-(MaCath-BIM)] [PolCathBIM]
cells staining positive for annexin V [2]: 87%
BIM-mediated cell death in 3T3 fibroblasts [3]: no BIM-mediated cell death was observed

poly[(DEAEMA)-co-(BMA)]-b-[(PEGMA300)-c-(MaCathScrBIM)] [PolCathScrBIM]
cells staining positive for annexin V [2]: 15%
change in caspase 3/7 activity relative to untreated cultures [4]: no change
cell viability [5]: greater than 90%
